Laboratory results: ChEMBL document CHEMBL1201862, “PubChem BioAssay data set” (2004)
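Cells were grown in 96-well plates and exposed to each compound for 48 hours at five concentrations; endpoints were interpolated linearly between bracketing concentrations, or set to the highest concentration if not reached. GI50 marks 50% less growth.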 Activity calls are given as the source filed them. No stated cut-off is given here; in the data, active = GI50 up to about 1.1 µM and inactive = higher.

Key:
Test in all cases: DTP human tumour cell line panel, 48 h
UACC-62 = tested on: UACC-62
SK-MEL-2 = tested on: SK-MEL-2
CCRF-CEM = tested on: CCRF-CEM
OVCAR-3 = tested on: OVCAR-3
A549 = tested on: A549
OVCAR-5 = tested on: OVCAR-5
RXF 393 = tested on: RXF 393
OVCAR-8 = tested on: OVCAR-8
TK-10 = tested on: TK-10
SNB-19 = tested on: SNB-19
NCI-H522 = tested on: NCI-H522
SW-620 = tested on: SW-620
UO-31 = tested on: UO-31
Malme-3M = tested on: Malme-3M
SF-295 = tested on: SF-295
IGROV-1 = tested on: IGROV-1
M14 = tested on: M14
DU-145 = tested on: DU-145
HL-60 = tested on: HL-60
NCI-H460 = tested on: NCI-H460

Structure (SMILES)	GI50 (UACC-62)	GI50 (SK-MEL-2)	GI50 (CCRF-CEM)	GI50 (OVCAR-3)	GI50 (A549)	GI50 (OVCAR-5)	GI50 (RXF 393)	GI50 (OVCAR-8)	GI50 (TK-10)	GI50 (SNB-19)	GI50 (NCI-H522)	GI50 (SW-620)	GI50 (UO-31)	GI50 (Malme-3M)	GI50 (SF-295)	GI50 (IGROV-1)	GI50 (M14)	GI50 (DU-145)	GI50 (HL-60)	GI50 (NCI-H460)
CCCOC(=O)CCC(NC(=O)c1ccc(Nc2nc3ccccc3nc2-c2cccs2)cc1)C(=O)OCCC (centres undefined)	41.7 µM (inactive)	24.8 µM (inactive)	3.62 µM (inactive)	> 100 µM (inactive)	> 100 µM (inactive)	56 µM (inactive)	67.9 µM (inactive)	> 100 µM (inactive)	> 100 µM (inactive)	> 100 µM (inactive)	> 100 µM (inactive)	> 100 µM (inactive)	95.9 µM (inactive)	19.1 µM (inactive)	> 100 µM (inactive)	55.1 µM (inactive)				
COc1ccc(NC2=NCCO2)c2ccccc12	> 10 µM (inactive)	> 10 µM (inactive)	> 10 µM (inactive)	> 10 µM (inactive)	> 10 µM (inactive)	> 10 µM (inactive)	> 10 µM (inactive)	> 10 µM (inactive)	> 10 µM (inactive)	> 10 µM (inactive)	> 10 µM (inactive)	> 10 µM (inactive)	> 10 µM (inactive)	> 10 µM (inactive)	> 10 µM (inactive)	> 10 µM (inactive)	> 10 µM (inactive)	> 10 µM (inactive)	> 10 µM (inactive)	> 10 µM (inactive)
O=c1c2cc(I)ccc2nc(-c2cccs2)n1Nc1ccccc1	0.719 µM (active)	0.33 µM (active)		1.16 µM (inactive)	1.06 µM (active)	30.5 µM (inactive)	39.3 µM (inactive)	2.08 µM (inactive)		23.5 µM (inactive)	0.849 µM (active)	2.72 µM (inactive)	0.889 µM (active)		0.383 µM (active)	1.39 µM (inactive)	1.5 µM (inactive)		0.416 µM (active)	0.458 µM (active)
CC1C/C(=C\c2ccc(O)c(O)c2)C(=O)/C(=C/c2ccc(O)c(O)c2)C1 (centres undefined)	3.17 µM (inactive)	6.97 µM (inactive)	3.06 µM (inactive)	5.25 µM (inactive)	13.4 µM (inactive)	17.3 µM (inactive)	3.73 µM (inactive)	9.04 µM (inactive)	25 µM (inactive)	10.7 µM (inactive)	1.81 µM (inactive)	11.6 µM (inactive)		10.4 µM (inactive)	13.7 µM (inactive)	6 µM (inactive)		8.85 µM (inactive)	4.93 µM (inactive)	12.7 µM (inactive)
Nc1nc(=S)[nH]c2nc3c(c(-c4ccccc4)c12)CCCC3	> 100 µM (inactive)		> 10 µM (inactive)	> 100 µM (inactive)	> 100 µM (inactive)	> 100 µM (inactive)		> 100 µM (inactive)	> 100 µM (inactive)	> 100 µM (inactive)		> 100 µM (inactive)	> 100 µM (inactive)	> 100 µM (inactive)	> 100 µM (inactive)	> 100 µM (inactive)	> 100 µM (inactive)	> 100 µM (inactive)	> 100 µM (inactive)	> 100 µM (inactive)
Cc1cccc2c1Sc1ccccc1C2NC(=O)CN(C)C (centres undefined)	> 100 µM (inactive)		> 100 µM (inactive)		> 100 µM (inactive)	> 100 µM (inactive)	53.6 µM (inactive)	> 100 µM (inactive)	> 100 µM (inactive)	> 100 µM (inactive)		> 100 µM (inactive)	33.6 µM (inactive)			> 100 µM (inactive)	41.4 µM (inactive)		74.5 µM (inactive)	> 100 µM (inactive)
C=CC(Br)(CBr)CCC(Cl)C(C)C (centres undefined)	1.5 µM (inactive)	1.92 µM (inactive)	0.364 µM (active)	2.02 µM (inactive)	4.69 µM (inactive)	2.44 µM (inactive)	1.6 µM (inactive)		1.88 µM (inactive)	2.2 µM (inactive)	1.42 µM (inactive)	1.69 µM (inactive)	1.64 µM (inactive)	1.58 µM (inactive)	1.84 µM (inactive)	2.5 µM (inactive)	1.7 µM (inactive)	2.72 µM (inactive)	0.561 µM (active)	1.88 µM (inactive)
O=Cc1c(Br)[nH]c2ccccc12	47 µM (inactive)	75.3 µM (inactive)	96.6 µM (inactive)	> 100 µM (inactive)	> 100 µM (inactive)	> 91.4 µM (inactive)	> 100 µM (inactive)	> 100 µM (inactive)			61.2 µM (inactive)	> 100 µM (inactive)	39.9 µM (inactive)	> 100 µM (inactive)	75.2 µM (inactive)	> 81.1 µM (inactive)			9.55 µM (inactive)	> 100 µM (inactive)
CN(C)C(=S)SCc1ccccc1	> 100 µM (inactive)	83.4 µM (inactive)	> 100 µM (inactive)	> 100 µM (inactive)	> 100 µM (inactive)	> 100 µM (inactive)	3.85 µM (inactive)	> 100 µM (inactive)	> 100 µM (inactive)	> 100 µM (inactive)	19.8 µM (inactive)	> 100 µM (inactive)	53.7 µM (inactive)	27.2 µM (inactive)	> 100 µM (inactive)	> 100 µM (inactive)	> 100 µM (inactive)	> 100 µM (inactive)	99.1 µM (inactive)	> 100 µM (inactive)
O=C(NCCCNC(=O)c1ccc2cc(O)c(O)cc2c1)c1ccc2cc(O)c(O)cc2c1	20 µM (inactive)	13.1 µM (inactive)	27.1 µM (inactive)		69.8 µM (inactive)	63 µM (inactive)	24.7 µM (inactive)	35.2 µM (inactive)	37.9 µM (inactive)	18.3 µM (inactive)	29.6 µM (inactive)	43 µM (inactive)	34.1 µM (inactive)	28.6 µM (inactive)		35.6 µM (inactive)	45.7 µM (inactive)	26.7 µM (inactive)	19.2 µM (inactive)	34 µM (inactive)
